Patent US9902713B2, “Neuroprotective compounds and use thereof” (BOARD OF REGENTS OF THE UNIVERSITY OF TEXAS SYSTEM, priority 2013, dated 2018)

Key:
[1] = system: hippocampal CA1 Schaffer-collateral pathway; assay: Hippocampal electrophysiology (LTP, PPF) after blast-mediated TBI; format: in vivo, mice
Description: To test our hypothesis that performance in the Barnes maze was associated with hippocampal function, we investigated synaptic plasticity in the hippocampus. Specifically, we measured both long-term potentiation (LTP) and paired pulse facilitation (PPF) in brain slices derived from mice exposed to blast-injury as a function of treatment with different doses of P7C3-S243 for 9 days, initiated 24 hours after injury, in animals not subjected to behavioral testing. The stimulating electrode activated CA3 Schaeffer collateral axons, and the recording electrode was placed in the stratum radiatum of the CA1 region, where Schaffer collateral axons synapse with dendrites from CA1 pyramidal cells. […] Thus, dose-dependent protective efficacy of P7C3-S243 in behavioral tasks of learning and memory correlated with hippocampal function.
Electrophysiology. Single-housed, naïve 7- to 9-week-old male C57BL/6J mice received intraperitoneal injections of P7C3-S243 (0.3, 3, or 30 mg/kg/day) or vehicle 24 h following a single sham- or blast-Injury. On the tenth day after injury, coronal hippocampal slices (400 μm) were prepared, in accordance with the University of Iowa guidelines. Briefly, hippocampal slices were cut using a Vibratome 1000 Plus (Vibratome, St. Louis, Mo.) in ice-cold slicing buffer (in mM: 127 NaCl, 26 NaHCO3, 1.2 KH2PO4, 1.9 KCl, 1.1 CaCl2, 2 MgSO4, 10 D-Glucose) bubbled with 95% 02 and 5% CO2. Slices were then transferred to a holding chamber containing oxygenated artificial cerebrospinal fluid (ACSF; in mM: 127 NaCl, 26 NaHCO3, 1.2 KH2PO4, 1.9 KCl, 2.2 CaCl2, 1 MgSO4, 10 D-Glucose) for 30 min at 34 C and for another 30 min at 22° C. for recovery, and then transferred to a submersion recording chamber continually perfused with 32° C. oxygenated ACSF (rate: 2 ml/min). Slices were equilibrated for at least 15 min before each recording.
ACSF-filled glass electrodes (resistance <1 MΩ) were positioned in the stratum radiatum of area CA1 for extracellular recording. Synaptic responses were evoked by stimulating Schaffer collaterals with 0.2 ms pulses once every 15 s. […] Experiments with maximal fEPSPs of less than 0.5 mV, with large fiber volleys, or with substantial changes in the fiber volley during recording were rejected. LTP was induced by 12TBS (12 bursts, each of 4 pulses at 100 Hz).
Field EPSPs were recorded (AxoClamp 900A amplifier, Axon Instruments, Foster City, Calif.), filtered at 1 kHz, digitized at 10 kHz (Axon Digidata 1440), and stored for off-line analysis (Clampfit 10). Initial slopes of fEPSPs were expressed as percentages of baseline averages. In summary graphs, each point represents the average of 4 consecutive responses. The time-matched, normalized data were averaged across experiments.

blood-brain barrier = assay: Blood brain barrier permeability assay (Evans blue); format: in vivo; settings: sham-injured mice, 3 days of daily treatment
Text: On the basis of the promising results seen with administration of P7C3-A20 or P7C3-S243 immediately after injury, we sought to determine whether P7C3-S243 could offer protective efficacy when treatment was initiated later. Because TBI can disrupt the blood-brain barrier (BBB), we first examined BBB integrity over time by means of the Evans blue assay. Evans blue is an azo dye with tight affinity for albumin, such that in serum virtually all Evans blue is albumin-bound. Normally, serum albumin cannot cross the BBB. However, when the BBB is compromised, albumin and its bound Evans blue can enter the CNS. The magnitude of Evans blue accumulation in the brain can then be spectrophotometrically determined in order to monitor disruption of the BBB (Uyama et al., 1988; Hawkins and Egleton, 2006). With this technique, we observed significant disruption of the BBB 6 hours after blast-injury, with integrity of the BBB recovering to normal 18 hours later (FIG. 21B).
Blood brain barrier (BBB) permeability assay. […] To quantify the extravasation of albumin-bound EBD in each brain, tissue was weighed and incubated for 30 minutes at room temperature in 50% Tricholoracetic acid (TCA) in PBS at a 3:1 μl/mg ratio. […] Fluorescence was measured using a SpectraMax M2^e (Molecular Devices) in 100 μl of samples plated on a 96-well plate at excitation wavelength of 620 nm and an emission wavelength of 680 nm.

[2] = Metabolic stability in hepatocytes; format: in vitro ADME; settings: murine hepatocytes
Description: The pharmacokinetic and toxicity profiles of P7C3-S243 were evaluated using both in vivo and in vitro methods. Having observed near complete metabolic stability in the presence of murine hepatocytes (T1/2>240 min), we monitored plasma and brain levels of the compound following IV, oral and IP dosing.

[3] = system: intracellular levels of NAD; assay: Intracellular NAD levels by mass spectrometry; format: cell-based; settings: 3 uM, 12 hrs
Text: Cultured cells were exposed to varying levels of “A20” (X-axis) for 12 hrs. Intracellular levels of NAD (Y-axis) were monitored by mass spectrometry.

[4] = system: newborn hippocampal neurons; settings: previously reported; cited from earlier work
U2OS cells = assay: Protection from doxorubicin-mediated toxicity (Dox:Tox); format: cell-based
2C8 = 2C8 (Homo sapiens, UniProt P10632); assay: Cytochrome P450 inhibition; format: in vitro ADME
CYP2C19 = CYP2C19 (Homo sapiens, UniProt P33261); assay: Cytochrome P450 inhibition
μ-opioid receptor = μ-opioid receptor (Homo sapiens, UniProt P35372); assay: Ligand displacement (Psychoactive Drug Screening Program); format: binding
3A4 = 3A4 (Homo sapiens, UniProt P08684); assay: Cytochrome P450 inhibition; format: in vitro ADME
HCC44 = assay: Toxicity towards human cancer cell line; format: cell-based
hERG = hERG (Homo sapiens, UniProt Q12809); assay: hERG patch clamp assay
2C9 = 2C9 (Homo sapiens, UniProt P11712); assay: Cytochrome P450 inhibition; format: in vitro ADME
2C9, sequence (P11712 whole entry): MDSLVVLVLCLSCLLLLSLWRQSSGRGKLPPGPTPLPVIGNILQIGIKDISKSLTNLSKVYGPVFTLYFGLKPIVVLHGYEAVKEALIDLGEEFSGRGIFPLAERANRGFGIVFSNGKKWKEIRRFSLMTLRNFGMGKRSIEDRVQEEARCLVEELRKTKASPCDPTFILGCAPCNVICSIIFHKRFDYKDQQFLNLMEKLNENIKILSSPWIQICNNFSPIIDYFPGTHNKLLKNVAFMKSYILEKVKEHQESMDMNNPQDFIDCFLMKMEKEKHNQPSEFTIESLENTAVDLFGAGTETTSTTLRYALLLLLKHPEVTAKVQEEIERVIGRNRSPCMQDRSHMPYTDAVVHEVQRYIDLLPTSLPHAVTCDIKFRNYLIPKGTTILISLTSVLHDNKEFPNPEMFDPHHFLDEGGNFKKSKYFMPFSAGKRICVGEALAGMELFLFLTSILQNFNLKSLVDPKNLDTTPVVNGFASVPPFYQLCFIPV

3A4, sequence (P08684 whole entry): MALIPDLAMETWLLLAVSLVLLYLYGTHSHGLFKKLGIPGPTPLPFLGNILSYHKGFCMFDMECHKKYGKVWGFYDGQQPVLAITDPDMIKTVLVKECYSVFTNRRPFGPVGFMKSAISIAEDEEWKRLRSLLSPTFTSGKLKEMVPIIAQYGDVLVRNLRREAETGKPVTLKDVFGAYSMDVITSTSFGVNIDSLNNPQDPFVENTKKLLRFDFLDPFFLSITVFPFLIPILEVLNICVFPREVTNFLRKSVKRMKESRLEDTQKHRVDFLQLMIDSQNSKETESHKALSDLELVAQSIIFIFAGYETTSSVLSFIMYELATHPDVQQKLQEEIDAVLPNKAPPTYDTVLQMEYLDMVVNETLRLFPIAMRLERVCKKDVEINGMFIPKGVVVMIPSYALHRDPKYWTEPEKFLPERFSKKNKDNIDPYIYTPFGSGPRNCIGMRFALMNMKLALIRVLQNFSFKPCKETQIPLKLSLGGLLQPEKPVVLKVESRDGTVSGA
hERG, sequence (Q12809 whole entry): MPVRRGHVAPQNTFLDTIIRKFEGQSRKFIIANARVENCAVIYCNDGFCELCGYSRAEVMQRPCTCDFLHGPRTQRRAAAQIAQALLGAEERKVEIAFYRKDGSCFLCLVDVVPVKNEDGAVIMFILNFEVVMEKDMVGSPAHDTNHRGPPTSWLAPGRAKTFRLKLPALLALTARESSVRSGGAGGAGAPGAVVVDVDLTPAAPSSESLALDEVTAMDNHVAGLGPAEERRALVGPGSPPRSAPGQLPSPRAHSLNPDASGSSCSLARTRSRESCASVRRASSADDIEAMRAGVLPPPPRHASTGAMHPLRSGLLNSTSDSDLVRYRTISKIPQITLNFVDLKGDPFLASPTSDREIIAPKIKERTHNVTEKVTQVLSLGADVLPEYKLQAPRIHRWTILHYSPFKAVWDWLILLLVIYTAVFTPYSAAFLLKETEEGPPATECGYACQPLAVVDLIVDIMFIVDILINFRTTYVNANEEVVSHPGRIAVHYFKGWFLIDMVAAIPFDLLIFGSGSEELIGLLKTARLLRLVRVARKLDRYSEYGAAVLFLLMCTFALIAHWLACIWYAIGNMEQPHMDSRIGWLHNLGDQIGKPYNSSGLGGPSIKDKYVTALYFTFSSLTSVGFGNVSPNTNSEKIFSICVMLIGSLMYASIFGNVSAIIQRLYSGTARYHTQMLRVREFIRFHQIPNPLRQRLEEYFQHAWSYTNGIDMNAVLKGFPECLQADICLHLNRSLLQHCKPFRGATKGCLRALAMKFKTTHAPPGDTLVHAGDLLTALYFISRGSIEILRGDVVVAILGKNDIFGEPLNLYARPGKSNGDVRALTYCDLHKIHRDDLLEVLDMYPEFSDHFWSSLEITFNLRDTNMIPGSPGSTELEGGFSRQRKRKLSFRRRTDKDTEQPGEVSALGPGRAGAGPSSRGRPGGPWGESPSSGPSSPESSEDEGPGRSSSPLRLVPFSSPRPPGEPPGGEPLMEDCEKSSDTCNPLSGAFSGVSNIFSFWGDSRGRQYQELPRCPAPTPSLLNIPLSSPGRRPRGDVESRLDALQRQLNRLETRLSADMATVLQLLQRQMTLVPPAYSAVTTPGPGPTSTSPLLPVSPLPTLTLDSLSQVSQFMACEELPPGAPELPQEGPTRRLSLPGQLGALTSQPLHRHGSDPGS
2C8, sequence (P10632 whole entry): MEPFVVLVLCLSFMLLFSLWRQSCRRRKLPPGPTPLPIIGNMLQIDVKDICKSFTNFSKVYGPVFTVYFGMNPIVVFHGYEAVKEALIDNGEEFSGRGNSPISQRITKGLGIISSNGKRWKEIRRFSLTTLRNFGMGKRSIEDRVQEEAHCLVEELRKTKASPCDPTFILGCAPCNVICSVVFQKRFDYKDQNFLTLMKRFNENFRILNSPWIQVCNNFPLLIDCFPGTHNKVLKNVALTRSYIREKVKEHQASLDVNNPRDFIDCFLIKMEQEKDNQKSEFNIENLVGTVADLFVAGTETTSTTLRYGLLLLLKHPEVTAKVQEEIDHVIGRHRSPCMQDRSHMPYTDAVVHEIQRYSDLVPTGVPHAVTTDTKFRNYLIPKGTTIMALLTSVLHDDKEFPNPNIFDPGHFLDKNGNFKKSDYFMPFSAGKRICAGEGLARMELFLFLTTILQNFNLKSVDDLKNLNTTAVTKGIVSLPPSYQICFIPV
CYP2C19, sequence (P33261 whole entry): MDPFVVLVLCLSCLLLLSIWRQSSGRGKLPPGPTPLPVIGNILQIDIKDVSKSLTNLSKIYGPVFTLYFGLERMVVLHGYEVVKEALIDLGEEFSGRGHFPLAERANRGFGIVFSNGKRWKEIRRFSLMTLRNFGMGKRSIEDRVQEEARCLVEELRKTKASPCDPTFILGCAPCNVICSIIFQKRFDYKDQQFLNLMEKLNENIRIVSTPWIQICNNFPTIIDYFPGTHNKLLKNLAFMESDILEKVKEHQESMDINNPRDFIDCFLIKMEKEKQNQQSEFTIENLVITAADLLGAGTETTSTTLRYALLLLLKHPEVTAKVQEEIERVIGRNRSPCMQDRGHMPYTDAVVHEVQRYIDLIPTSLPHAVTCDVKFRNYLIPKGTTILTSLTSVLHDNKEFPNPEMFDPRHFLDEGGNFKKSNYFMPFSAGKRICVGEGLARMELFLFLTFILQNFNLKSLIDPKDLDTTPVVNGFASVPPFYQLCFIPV
μ-opioid receptor, sequence (P35372 whole entry, species assumed): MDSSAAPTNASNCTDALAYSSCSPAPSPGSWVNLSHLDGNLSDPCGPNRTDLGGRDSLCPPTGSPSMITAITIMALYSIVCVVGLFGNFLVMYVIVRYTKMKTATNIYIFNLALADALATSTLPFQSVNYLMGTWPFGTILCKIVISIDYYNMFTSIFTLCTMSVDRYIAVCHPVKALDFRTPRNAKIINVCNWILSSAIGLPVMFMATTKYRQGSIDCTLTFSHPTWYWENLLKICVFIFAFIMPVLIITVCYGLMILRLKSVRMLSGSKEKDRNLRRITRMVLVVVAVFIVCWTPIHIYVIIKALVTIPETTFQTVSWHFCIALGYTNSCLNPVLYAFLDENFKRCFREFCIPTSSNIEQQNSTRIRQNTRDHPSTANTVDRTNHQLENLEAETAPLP

For `COc1cccc(NCC(F)Cn2c3ccc(Br)cc3c3cc(Br)ccc32)n1` (racemic) [P7C3-S243, N-(3-(3,6-dibromo-9H-carbazol-9-yl)-2-fluoropropyl)-6-methoxypyridin-2-amine], which “blast-induced LTP deficit” value ([1]; 0.3 mg/kg/d from 24 hours after injury) is on record?
Its value is “not rescued”.

And the “blast-induced deficits in LTP and PPF” value ([1]; 0.3 mg/kg/day)?
The value was “had no effect”.

And the “blast-induced PPF deficit, 50 ms inter-pulse interval” value ([1]; 3 and 30 mg/kg/d)?
The value was “rescued”.

And the “blast-induced LTP deficit” value ([1]; 3 and 30 mg/kg/d from 24 hours after injury)?
The value was “rescued”.

And the BBB integrity (blood-brain barrier)?
Its BBB integrity is “did not compromise BBB integrity”.

What about the T1/2 [2] of the same molecule?
The T1/2 was greater than 4 h.

Which “maximal enhancement of NAD” value [3] does the source give for `COc1cccc(NCC(F)Cn2c3ccc(Br)cc3c3cc(Br)ccc32)c1` (centres unmarked) [P7C3-A20, N-(3-(3,6-dibromo-9H-carbazol-9-yl)-2-fluoropropyl)-3-methoxyaniline] here?
The value was 20-30%.

What about the “activity in the in vivo hippocampal neuroprotection assay (previous studies)” value [4] of the same molecule?
Its value is “substantially improved activity”.

And the “level of compound required for maximal Dox:Tox protection” value (U2OS cells)?
Its value is 3 µM.

What about the “protection from doxorubicin-mediated cell toxicity” value (U2OS cells; U2OS cells, FIG. 11) of the same molecule?
Its value is “dose-responsive activity”.

What does the source list for `COc1cccc(NCC(F)Cn2c3ccc(Br)cc3c3cc(Br)ccc32)n1` (single isomer, unassigned; (-)) [(−)-P7C3-S243, (−)-N-(3-(3,6-dibromo-9H-carbazol-9-yl)-2-fluoropropyl)-6-methoxypyridin-2-amine]?
sensitivity of cytochrome P450 (2C8): insensitive; IC50 (CYP2C19): 1.9 µM; IC50 (μ-opioid receptor): 8.2 µM; sensitivity of cytochrome P450 (3A4): insensitive; IC50 (HCC44): > 10 µM; inhibition at 50 µM (hERG): < 15%; sensitivity of cytochrome P450 (2C9): insensitive
